According to ChEMBL document CHEMBL5465560, “Selectivity Literature for EUbOPEN Chemogenomic Library” (2024):

Tests used:
[1] = target: Histone-lysine N-methyltransferase, H3 lysine-36 specific (Homo sapiens) (UniProt Q96L73); assay: Selectivity interaction (Methyltransferase screen (radiometric assays, panel of 8 PRMTs, 21 protein lysine methyltransferases, 3 DNA methyltransferases, and one RNA methyltransferase)) EUB0000271b NSD1; settings: at 10 µM
[2] = target: Dual specificity mitogen-activated protein kinase kinase 1 (Homo sapiens, UniProt Q02750); assay: Selectivity interaction (Kinase panel (Eurofins)) EUB0001564a MAP2K1; settings: at 1 µM
Dual specificity mitogen-activated protein kinase kinase 1, sequence (Q02750 whole entry): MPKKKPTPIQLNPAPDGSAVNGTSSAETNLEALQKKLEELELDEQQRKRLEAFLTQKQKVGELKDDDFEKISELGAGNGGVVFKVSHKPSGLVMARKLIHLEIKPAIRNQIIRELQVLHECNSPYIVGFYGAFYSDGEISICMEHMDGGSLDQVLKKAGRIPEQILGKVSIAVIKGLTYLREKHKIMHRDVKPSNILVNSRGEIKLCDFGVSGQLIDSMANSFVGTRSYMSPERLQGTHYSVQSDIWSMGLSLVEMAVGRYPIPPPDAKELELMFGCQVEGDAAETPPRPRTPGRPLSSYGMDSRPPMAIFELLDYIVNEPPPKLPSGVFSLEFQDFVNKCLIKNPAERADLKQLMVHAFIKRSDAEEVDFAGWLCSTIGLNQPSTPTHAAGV

[3] = target: Tyrosine-protein kinase FRK (Homo sapiens) (UniProt P42685); assay: Selectivity interaction (KinomeScan (DiscoverX)) EUB0000655a FRK; settings: at 10 µM
Tyrosine-protein kinase FRK (Homo sapiens), sequence (P42685 whole entry): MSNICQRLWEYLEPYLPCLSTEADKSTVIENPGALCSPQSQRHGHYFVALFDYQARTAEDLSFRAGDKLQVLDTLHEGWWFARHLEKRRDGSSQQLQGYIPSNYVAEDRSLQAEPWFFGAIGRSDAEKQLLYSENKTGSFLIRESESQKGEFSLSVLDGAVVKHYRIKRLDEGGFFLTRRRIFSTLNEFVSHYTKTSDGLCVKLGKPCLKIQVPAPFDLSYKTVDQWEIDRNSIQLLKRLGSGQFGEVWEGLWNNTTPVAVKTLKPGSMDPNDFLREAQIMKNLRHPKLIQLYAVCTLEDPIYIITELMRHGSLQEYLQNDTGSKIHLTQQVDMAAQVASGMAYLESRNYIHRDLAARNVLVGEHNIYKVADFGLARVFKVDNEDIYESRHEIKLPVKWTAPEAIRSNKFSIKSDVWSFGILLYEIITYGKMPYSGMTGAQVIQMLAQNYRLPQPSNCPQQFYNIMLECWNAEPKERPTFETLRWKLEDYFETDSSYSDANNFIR

[4] = target: T1, Aurora kinase A (Homo sapiens) (UniProt O14965); assay: Selectivity interaction (KinomeScan (DiscoverX)) EUB0000655a STK6; settings: at 10 µM
T1 sequence (whole entry): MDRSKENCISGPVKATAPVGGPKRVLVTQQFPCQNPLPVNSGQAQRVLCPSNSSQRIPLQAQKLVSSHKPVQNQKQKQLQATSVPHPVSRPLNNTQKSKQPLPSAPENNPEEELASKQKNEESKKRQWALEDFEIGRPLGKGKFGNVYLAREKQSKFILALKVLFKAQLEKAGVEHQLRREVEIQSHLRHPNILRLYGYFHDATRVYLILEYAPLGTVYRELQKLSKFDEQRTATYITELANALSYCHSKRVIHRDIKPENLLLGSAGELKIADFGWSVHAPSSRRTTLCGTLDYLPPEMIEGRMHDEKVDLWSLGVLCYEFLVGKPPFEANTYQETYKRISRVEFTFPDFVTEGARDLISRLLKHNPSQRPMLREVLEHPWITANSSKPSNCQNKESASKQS

[5] = target: Receptor-type tyrosine-protein kinase FLT3 (Homo sapiens) (UniProt P36888); assay: Selectivity interaction (KinomeScan (DiscoverX)) EUB0001079a FLT3; settings: at 1 µM
Receptor-type tyrosine-protein kinase FLT3 (Homo sapiens), sequence (P36888 whole entry): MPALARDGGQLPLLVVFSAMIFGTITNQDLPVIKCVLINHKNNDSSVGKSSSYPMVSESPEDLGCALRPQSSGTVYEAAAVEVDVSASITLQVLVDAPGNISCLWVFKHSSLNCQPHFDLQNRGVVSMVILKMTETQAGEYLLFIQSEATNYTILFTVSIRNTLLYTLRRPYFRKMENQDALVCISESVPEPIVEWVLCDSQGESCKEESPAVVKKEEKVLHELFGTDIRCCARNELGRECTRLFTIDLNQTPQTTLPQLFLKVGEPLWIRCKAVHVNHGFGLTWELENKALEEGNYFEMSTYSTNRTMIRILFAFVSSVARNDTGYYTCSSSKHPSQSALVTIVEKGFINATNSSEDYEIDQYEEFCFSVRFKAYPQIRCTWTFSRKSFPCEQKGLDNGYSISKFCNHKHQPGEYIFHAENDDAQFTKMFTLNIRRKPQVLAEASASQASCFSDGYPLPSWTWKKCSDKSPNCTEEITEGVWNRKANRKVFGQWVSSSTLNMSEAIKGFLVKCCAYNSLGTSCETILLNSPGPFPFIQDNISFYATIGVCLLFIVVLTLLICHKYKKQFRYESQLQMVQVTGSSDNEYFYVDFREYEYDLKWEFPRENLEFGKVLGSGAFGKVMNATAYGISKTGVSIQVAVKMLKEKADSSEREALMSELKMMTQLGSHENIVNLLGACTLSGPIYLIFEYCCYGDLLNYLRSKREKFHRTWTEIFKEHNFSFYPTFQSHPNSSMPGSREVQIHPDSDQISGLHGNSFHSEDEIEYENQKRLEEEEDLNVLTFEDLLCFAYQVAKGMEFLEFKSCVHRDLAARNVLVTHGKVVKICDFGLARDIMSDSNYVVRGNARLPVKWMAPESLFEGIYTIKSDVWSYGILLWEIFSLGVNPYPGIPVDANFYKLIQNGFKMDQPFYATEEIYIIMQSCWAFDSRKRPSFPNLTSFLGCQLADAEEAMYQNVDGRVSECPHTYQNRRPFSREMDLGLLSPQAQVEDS

[6] = target: T2, Interleukin-1 receptor-associated kinase 4 (Homo sapiens) (UniProt Q9NWZ3); assay: Selectivity interaction (KinomeScan (DiscoverX)) EUB0000607a IRAK4; settings: at 10 µM
T2 sequence (whole entry): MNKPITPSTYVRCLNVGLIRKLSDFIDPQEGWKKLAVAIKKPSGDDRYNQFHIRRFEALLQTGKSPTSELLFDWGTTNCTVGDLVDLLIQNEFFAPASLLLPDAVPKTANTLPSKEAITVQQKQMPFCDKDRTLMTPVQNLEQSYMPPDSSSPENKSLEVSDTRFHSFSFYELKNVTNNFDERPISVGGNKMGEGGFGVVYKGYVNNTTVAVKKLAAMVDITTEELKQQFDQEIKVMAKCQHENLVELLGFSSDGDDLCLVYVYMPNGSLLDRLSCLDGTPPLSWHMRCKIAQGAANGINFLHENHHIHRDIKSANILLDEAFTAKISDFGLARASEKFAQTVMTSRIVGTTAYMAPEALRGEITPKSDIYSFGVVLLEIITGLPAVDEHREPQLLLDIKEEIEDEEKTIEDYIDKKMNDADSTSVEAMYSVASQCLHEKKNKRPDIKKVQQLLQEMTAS

[7] = target: Tyrosine-protein kinase receptor UFO (Homo sapiens) (UniProt P30530); assay: Selectivity interaction (KinomeScan (DiscoverX)) EUB0000607a AXL; settings: at 10 µM
[8] = target: Phosphatidylinositol 4,5-bisphosphate 3-kinase catalytic subunit beta isoform (Homo sapiens) (UniProt P42338); assay: Selectivity interaction (ActivX KiNativ screen (ex vivo kinase selectivity in human PBMCs)) EUB0001619a PIK3CB; format: cell-based; settings: PBMC, at 1 µM
[9] = target: Casein kinase I isoform gamma-1 (Homo sapiens) (UniProt Q9HCP0); assay: Selectivity interaction (Kinase panel (KiNativ target engagement assay in Jurkat cells)) EUB0001635a CSNK1G1; format: cell-based; settings: at 1 µM
Casein kinase I isoform gamma-1 (Homo sapiens), sequence (Q9HCP0 whole entry, looked up, canonical isoform): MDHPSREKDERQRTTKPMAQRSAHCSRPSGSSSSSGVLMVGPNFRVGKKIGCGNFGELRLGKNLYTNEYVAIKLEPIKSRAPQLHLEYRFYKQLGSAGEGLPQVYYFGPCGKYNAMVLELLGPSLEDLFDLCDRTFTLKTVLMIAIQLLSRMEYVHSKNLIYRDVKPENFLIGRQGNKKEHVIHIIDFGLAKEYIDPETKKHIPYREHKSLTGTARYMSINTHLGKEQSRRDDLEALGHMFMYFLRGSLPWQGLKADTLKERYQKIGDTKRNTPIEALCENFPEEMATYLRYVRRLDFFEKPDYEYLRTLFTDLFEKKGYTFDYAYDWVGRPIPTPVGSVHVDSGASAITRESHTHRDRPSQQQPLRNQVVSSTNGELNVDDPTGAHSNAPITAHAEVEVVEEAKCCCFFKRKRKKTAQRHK

[10] = target: Tyrosine-protein kinase Lyn (Homo sapiens, UniProt P07948); assay: Selectivity interaction (ActivX KiNativ screen (kinase selectivity in THP-1 cell lysates)) EUB0000639a LYN; format: subcellular; settings: lysate, at 5 µM
Tyrosine-protein kinase Lyn, sequence (P07948 2-512 limits assumed): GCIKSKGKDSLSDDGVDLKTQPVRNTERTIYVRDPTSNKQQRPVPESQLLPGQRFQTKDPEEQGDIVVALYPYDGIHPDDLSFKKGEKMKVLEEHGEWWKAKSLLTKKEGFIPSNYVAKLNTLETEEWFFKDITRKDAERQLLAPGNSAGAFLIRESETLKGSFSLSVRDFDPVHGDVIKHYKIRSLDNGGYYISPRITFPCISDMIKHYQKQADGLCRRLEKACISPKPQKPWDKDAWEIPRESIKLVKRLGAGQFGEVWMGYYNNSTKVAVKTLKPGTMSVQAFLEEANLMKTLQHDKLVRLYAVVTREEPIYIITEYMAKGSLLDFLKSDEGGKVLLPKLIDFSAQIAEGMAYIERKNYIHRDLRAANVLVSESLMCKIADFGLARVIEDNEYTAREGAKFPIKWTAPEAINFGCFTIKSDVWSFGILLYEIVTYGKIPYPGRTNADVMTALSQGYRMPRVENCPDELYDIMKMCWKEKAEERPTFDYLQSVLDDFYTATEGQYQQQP

[11] = target: T3, Calcium/calmodulin-dependent protein kinase type IV (Homo sapiens) (UniProt Q16566); assay: Selectivity interaction (Kinase panel (Invitrogen)) EUB0000639a CAMK4; settings: at 200 nM
T3 sequence (whole entry): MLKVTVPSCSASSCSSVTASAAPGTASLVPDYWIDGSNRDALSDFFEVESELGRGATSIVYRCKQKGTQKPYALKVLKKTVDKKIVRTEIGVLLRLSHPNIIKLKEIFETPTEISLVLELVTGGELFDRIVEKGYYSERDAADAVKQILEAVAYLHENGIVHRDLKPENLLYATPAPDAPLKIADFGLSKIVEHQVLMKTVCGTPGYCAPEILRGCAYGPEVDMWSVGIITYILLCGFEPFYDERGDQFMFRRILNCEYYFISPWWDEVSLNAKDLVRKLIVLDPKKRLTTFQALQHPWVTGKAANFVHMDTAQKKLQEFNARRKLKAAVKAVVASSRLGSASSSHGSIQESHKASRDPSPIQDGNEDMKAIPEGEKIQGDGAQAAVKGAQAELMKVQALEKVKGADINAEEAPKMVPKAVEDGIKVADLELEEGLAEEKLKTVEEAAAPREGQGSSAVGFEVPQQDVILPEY

[12] = target: Ribosomal protein S6 kinase alpha-4 (Homo sapiens) (UniProt O75676); assay: Selectivity interaction (Kinase panel (Invitrogen)) EUB0000639a RPS6KA4; settings: at 200 nM
[13] = target: Serine/threonine-protein kinase PLK3 (Homo sapiens, UniProt Q9H4B4); assay: Selectivity interaction (KinomeScan (DiscoverX)) EUB0000229b PLK3; settings: at 10 µM
Serine/threonine-protein kinase PLK3, sequence (Q9H4B4 whole entry, looked up): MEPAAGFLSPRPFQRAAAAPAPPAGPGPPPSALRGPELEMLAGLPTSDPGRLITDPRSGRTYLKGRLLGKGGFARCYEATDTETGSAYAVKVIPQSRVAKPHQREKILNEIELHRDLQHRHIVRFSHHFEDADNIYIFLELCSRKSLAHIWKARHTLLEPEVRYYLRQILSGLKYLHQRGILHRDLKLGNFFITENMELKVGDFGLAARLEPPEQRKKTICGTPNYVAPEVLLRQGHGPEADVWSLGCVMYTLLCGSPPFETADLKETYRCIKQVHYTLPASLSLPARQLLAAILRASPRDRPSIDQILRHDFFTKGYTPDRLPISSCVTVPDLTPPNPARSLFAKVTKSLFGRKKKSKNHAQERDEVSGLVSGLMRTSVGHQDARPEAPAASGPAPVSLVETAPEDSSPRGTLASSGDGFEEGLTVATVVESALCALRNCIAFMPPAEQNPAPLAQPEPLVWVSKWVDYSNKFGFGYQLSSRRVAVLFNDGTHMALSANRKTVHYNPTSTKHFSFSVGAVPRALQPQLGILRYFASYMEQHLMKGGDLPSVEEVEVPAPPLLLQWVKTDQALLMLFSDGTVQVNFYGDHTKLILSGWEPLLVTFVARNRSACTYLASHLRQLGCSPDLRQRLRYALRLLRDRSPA

[14] = target: Platelet-derived growth factor receptor alpha (Homo sapiens, UniProt P16234); assay: Selectivity interaction (KinomeScan (DiscoverX)) EUB0001049a PDGFRA; settings: at 1 µM
[15] = target: Activin receptor type-2A (Homo sapiens) (UniProt P27037); assay: Selectivity interaction (KinomeScan (DiscoverX)) EUB0000666a ACVR2A; settings: at 10 µM
[16] = system: Epidermal growth factor receptor (Homo sapiens), P00533 [UNDEFINED MUTATION]; assay: Selectivity interaction (LanthaScreen Eu Kinase Binding Assay) EUB0001632a EGFR; settings: at 10 µM
Epidermal growth factor receptor (Homo sapiens), P00533 [UNDEFINED MUTATION], sequence (P00533 whole entry, looked up, change not shown): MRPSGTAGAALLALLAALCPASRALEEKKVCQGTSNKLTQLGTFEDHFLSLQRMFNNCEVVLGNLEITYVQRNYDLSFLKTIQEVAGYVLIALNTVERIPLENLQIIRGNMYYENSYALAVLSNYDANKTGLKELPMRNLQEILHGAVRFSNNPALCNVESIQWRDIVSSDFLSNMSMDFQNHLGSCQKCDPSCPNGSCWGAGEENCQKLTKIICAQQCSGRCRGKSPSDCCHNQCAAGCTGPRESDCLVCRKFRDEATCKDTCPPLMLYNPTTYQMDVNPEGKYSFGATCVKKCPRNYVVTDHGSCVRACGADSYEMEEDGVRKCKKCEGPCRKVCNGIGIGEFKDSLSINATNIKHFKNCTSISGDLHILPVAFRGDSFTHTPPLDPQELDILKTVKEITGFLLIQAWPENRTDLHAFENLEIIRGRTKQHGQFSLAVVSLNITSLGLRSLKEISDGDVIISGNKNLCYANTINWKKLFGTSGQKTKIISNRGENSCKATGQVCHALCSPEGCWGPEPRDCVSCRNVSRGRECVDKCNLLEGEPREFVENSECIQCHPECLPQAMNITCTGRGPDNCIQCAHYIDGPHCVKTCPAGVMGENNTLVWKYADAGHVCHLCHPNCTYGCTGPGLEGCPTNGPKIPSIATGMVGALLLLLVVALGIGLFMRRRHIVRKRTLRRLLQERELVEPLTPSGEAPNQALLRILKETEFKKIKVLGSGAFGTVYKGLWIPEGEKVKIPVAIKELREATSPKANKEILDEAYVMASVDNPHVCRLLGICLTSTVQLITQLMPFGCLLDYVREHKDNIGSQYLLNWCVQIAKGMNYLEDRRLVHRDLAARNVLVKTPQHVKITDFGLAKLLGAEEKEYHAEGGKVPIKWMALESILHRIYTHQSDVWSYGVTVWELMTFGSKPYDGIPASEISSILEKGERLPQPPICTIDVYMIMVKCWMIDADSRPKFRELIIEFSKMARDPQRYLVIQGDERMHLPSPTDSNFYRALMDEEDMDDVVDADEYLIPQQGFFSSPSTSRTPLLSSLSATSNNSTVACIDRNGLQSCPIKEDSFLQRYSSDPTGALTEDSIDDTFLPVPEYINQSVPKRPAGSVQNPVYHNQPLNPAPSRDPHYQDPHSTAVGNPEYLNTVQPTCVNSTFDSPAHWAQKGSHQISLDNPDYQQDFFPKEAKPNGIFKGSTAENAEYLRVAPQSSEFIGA

Cc1cc(C)cc([C@@H]2c3cc(C)ccc3NC(=O)CN2C(=O)c2ccc(Br)s2)c1
% of activity [1]: 105%

CC[C@@H](Nc1c(C#N)c(-c2ccc(-c3cccc(C)c3F)cc2)nc2cnccc12)C(=O)O [BAY-091]
% of inhibition [2]: 21.5%

CN(C)CCOc1ccc(-c2nc(-c3ccncc3)c(-c3ccc4c(c3)CC/C4=N\O)[nH]2)cc1
% of control [3]: 96% | % of control [4]: 90%

Nc1cnc(N2CCc3cc(S(=O)(=O)Nc4c(F)cc(Cl)cc4F)cc(N4CCCC4=O)c32)nc1 [TP-020n]
% of control [5]: 91%

CNC(=O)Nc1ccc(-c2nc(N3CC4CCC(C3)O4)c3cnn(C4CCC5(CC4)OCCO5)c3n2)cc1
% of control [6]: 100% | % of control [7]: 88%

N#Cc1cccc(-c2c[nH]c3ncnc(N4CCOCC4)c23)c1
% of inhibition [8]: -1%

C=CC(=O)Nc1ccc(C(=O)Nc2[nH]nc3c2CN(C(=O)N[C@H](CN(C)C)c2ccccc2)C3(C)C)cc1
% of engagement [9]: -7.7%

CC[C@@H]1[C@H](F)C(=O)N[C@@H]1COc1nccc2cc(C(N)=O)c(OC)cc12 [ZIMLOVISERTIB]
% of inhibition [10]: -9.2% | % of inhibition [11]: -8.2% | % of inhibition [12]: 4.43%

COc1cc(N(C)c2ccnc3ccc(C(F)(F)F)cc23)cc(OC)c1OC
% binding [13]: 74%

COc1cc(Nc2nc(C)cc(-c3cnn4nc(OC)ccc34)n2)cc(C(F)(F)F)c1
% of control [14]: 69%

O=C(NOC[C@H](O)CO)c1ccc(F)c(F)c1Nc1ccc(I)cc1F
% of control [15]: 80%

Cn1cc(-n2cnc3c(NCc4nc5cc(Cl)c(Cl)cc5[nH]4)nc(N4CCOCC4)nc32)cn1
% of inhibition [16]: -12%
